Patent US7629310B2, “RhoB as a suppressor of cancer cell growth, cell transformation, and metastasis” (University of South Florida, priority 2000, dated 2009)
Several values for one entry are separate records, joined by “and”; a condition that tells them apart may be missing. Identical values can stand only once.

Assays:
[1] = test system: NIH3T3 cells; assay: Cell proliferation, parental NIH3T3; format: cell-based; settings: non-transformed NIH3T3, 0-96 hours
Experimental: (§1) Cell Proliferation. Cells were collected and examined for cell number by trypan blue exclusion and hemocytometer counting under microscope at 0 h, 24 h, 48 h, 72 h and 96 h. All the samples were performed in triplicate and the averages of 3 independent experiments were reported.

[2] = test system: B16-F10 melanoma cells; assay: Melanoma metastasis assay (B16-F10 cells injected into tail vein); format: in vivo, mouse; settings: transfected B16-F10 cells, C57 black mice, after 3 weeks, pcDNA3 control 14.8±1.9
Experimental: Parental NIH3T3 cells (FIG. 10A) were transiently transfected with pcDNA3 vector, HRas61L, or Akt in the presence or absence of RhoA, RhoB, or pcDNA3 for 36 hours. The cells were then split and cultured in DMEM medium containing 2 μM 5-FU for another 48 hours. The cells were then examined for their susceptibility to 5-FU-induced apoptosis by Annexin V labeling and flow cytometry apoptosis assays as described in the Materials and Methods section. 36 hours after the transfection, a fraction of the cells from FIG. 10A were washed and re-suspended in serum-free medium and seeded into the pre-coated plates and examined for viability at different time points by Annex V and 7-AAD labeling, as shown in FIG. 10B. In FIG. 10B, the bars at each time point (0, 12, 24 hrs), left-to-right, correspond to PCD, H-Ras, AKT, RhoA, RhoB, Akt+RhoA, and Akt+RhoB, respectively. […]
Melanoma Metastasis Assay. pcDNA3, pcDNA-RhoB and pcDNA-RhoA were transfected into B16-F10 cells similarly as described above. The cells were harvested 20 hours post-transfection; 5×10^5 cells from each group were analyzed for transfection efficiency by Western Blotting; another 5×10^5 cells were injected into the tail veins of C57/B16 mice (6 wk, F). The mice were sacrificed at the indicated intervals and the nodules growing in the lungs were counted.

[3] = test system: NIH3T3 cells; assay: 5-FU-induced apoptosis (Annexin V, flow cytometry) in NIH3T3 cells; format: cell-based; settings: for 5-FU apoptotic rate after transfection: NIH3T3, transfected 24 hours then 5-FU 48 hours (FIG. 10A), control 28-30%; for percent of apoptosis induced by 5-FU after transfection: parental NIH3T3, transfected 24 hrs then 5-FU 48 hrs, control 28%
Experimental: Apoptosis Assay. Cells were collected by trypsinization, washed in wash buffer and stained with Annexin V and 7-AAD according to manufacturer's recommendation (PharMingen, San Diego, Calif.). Data acquisition and analysis was performed by the Flow Cytometry Core Facility at the H. Lee Moffitt Cancer Center (Tampa, Fla.). All the samples were performed in duplicate and a representative of 3 independent experiments were reported here.

[4] = test system: NIH3T3 cells; assay: Focus formation assay in oncogene-transfected NIH3T3 cells; format: cell-based; design: inhibition of focus formation: concentration or dose not given beside the values; settings: for # of foci formed: 4 weeks
Experimental: Focus Formation Assay. NIH3T3 cells were seeded into 60-mm plates (1×10^6 cell/per plate) one day prior to gene transfection. […] Two days after transfection, the cells were seeded into 60-mm plates at a density of 2.5×10^3/per plate, and maintained in DMEM medium containing 1.5% CBS. The medium was changed every 3 days. 3-4 weeks later the cells were washed once with PBS and once with PBS/methanol (1:1), then washed with fresh anhydrous methanol and covered with crystal violet stain for 1 min at room temperature. Finally, the stain was displaced with water. The focus formation assay for A-549 cells was similarly performed as above except that following the transfection the cells were cultured in DMEM complete medium containing 400 μg/ml of geneticin (G418, […], Inc.). 3 weeks later, the cells were fixed with anhydrous methanol and stained with crystal violet; the plates were photographed. All the samples were performed in triplicate and a representative of 3 independent experiments was reported in the figure(s) and averages±standard deviation reported in the table.

[5] = test system: A-549 cells; assay: Cell proliferation, A-549; format: cell-based, human; settings: A-549, 0-96 hours
Experimental: as §1

[6] = test system: MMP-2; assay: MMP-2 expression in conditioned medium of PANC-1 and PC3 cells (Western blotting); format: cell-based, human; settings: conditioned medium (FIG. 9C)
Experimental: HRas/3T3 cells (FIG. 9A) and PANC-1 cells (FIG. 9B) were transiently transfected with pcDNA3 vector control, H-Ras61L, CA-Akt, or WT-Akt in the presence or absence of RhoA, RhoB, or pcDNA3 for 36 hours. The cells were then split and analyzed for their invading capabilities through […]-coated transfilters as described in the Materials and Methods section. PANC-1 and PC3 cells (FIG. 9C) were transiently transfected with pcDNA3, with H-Ras61L in the presence or absence of RhoA, or RhoB for 36 hours. The cells were then serum-starved for another 36 hours; the conditioned medium was collected and 20 μg protein were analyzed for MMP-2 expression by Western Blotting.
One pivotal step in these processes is the ability of cancer cells to cut through the extracellular matrix. This is accomplished by a cascade of proteinases, among which matrix metalloproteinases (MMPs) play a pivotal role (Yoon, S. O. et al., J Biochem Mol Biol, 2003, 36:128-37; Stamenkovic, I. Semin Cancer Biol, 2000, 10:415-33). […] To this end, PANC-1 and PC3 cells were treated with LY294002, or transfected with pcDNA3-RhoA or RhoB, and the conditioned culture medium was collected and analyzed for MMP-2 expression by anti-MMP-2 Western blotting as described in the Materials and Methods section.

[7] = test system: NIH3T3 cells; assay: Anchorage-independent growth (soft agar) assay in NIH3T3 cells; format: cell-based; settings: 5 weeks
Experimental: Anchorage-independent Growth Assay. NIH3T3 cells were similarly transfected as above. The cells were trypsinized, and 2.5×10^3 cells were suspended in triplicate in top soft agar layer (DMEM complete medium containing 0.35% agar) and seeded into 60-mm plates pre-coated by a 3-mm layer of lower agar (DMEM complete medium containing 0.7% agar). The cells were fed every 5 days for 5-6 weeks and finally stained with MTT (SIGMA). All the experiments were performed in triplicate and a representative of 3 independent experiments was reported in the figure(s) and averages±standard deviation in the table.

Row | Molecule | growth rate [1] | metastatic colonies per lung [2] | 5-FU apoptotic rate after transfection [3] | percent of apoptosis induced by 5-FU after transfection [3] | # of foci formed ([4]; oncogene transfected: EGFR) | # of foci formed ([4]; oncogene transfected: ErbB2) | # of foci formed ([4]; oncogene transfected: H-Ras) | # of foci formed ([4]; oncogene transfected: K-Ras) | # of foci formed ([4]; oncogene transfected: N-Ras) | # of foci formed ([4]; oncogene transfected: v-Src) | growth rate [5] | MMP-2 protein secreted [6] | # of soft agar colonies ([7]; oncogene: H-Ras) | # of soft agar colonies ([7]; oncogene: K-Ras) | # of soft agar colonies ([7]; oncogene: N-Ras) | other results
1 | RhoA: closely related family member sharing 86% sequence identity with RhoB; wild-type, in HA-tagged pcDNA3, transfected as control | enhanced the rate of growth | 13±4.5 | slightly protected | no significant effect | 47 ± 7 | 61 ± 11 | 63 ± 11 | 71 ± 13 | 46 ± 8 | 35 ± 7 | enhanced the rate of growth | increased MMP-2 levels, but to a lesser extent | 77 and 77 ± 12 | 65 and 65 ± 7 | 89 and 89 ± 14 | 
2 | RhoB: low molecular weight GTPase; wild-type RhoB subcloned into HA-tagged pcDNA3 and ectopically expressed by transfection | not affected | 2±0.7 | enhanced | 39% | 17 ± 3 | 19 ± 4 | 18 ± 3 | 16 ± 4 | 22 ± 3 | 26 ± 6 | inhibited the growth rate | remarkably reduced | 21 and 21 ± 3 | 18 and 18 ± 5 | 26 and 26 ± 7 | colony (focus) formation ([4]; co-transfection with H-Ras61L, CA-PI3K or CA-Akt, 4 weeks (FIG. 8A)): significant inhibition of colony formation; inhibition of focus formation ([4]; focus formation by EGFR): 56%; inhibition of focus formation ([4]; focus formation by ErbB2): 59%; inhibition of focus formation ([4]; focus formation by H-Ras): 62%; inhibition of focus formation ([4]; focus formation by K-Ras): 61%; inhibition of focus formation ([4]; focus formation by N-Ras): 39%; inhibition of focus formation ([4]; v-Src transformation): 15%
3 | O=c1[nH]cc(F)c(=O)[nH]1 [5-FU, 5-fluorouracil] |  |  |  |  |  |  |  |  |  |  |  |  |  |  |  | apoptosis ([3]; NIH3T3, 5-FU 48 hours (FIG. 10A)): 28-30%; apoptosis ([3]; parental NIH3T3, 5-FU 2.0 μM 48 hrs (FIG. 4B)): 27-32%
